Each block holds one compound with its values, some of them ahead of it.
Columns and labels:
CYP2C8 [1] = assay: CYP2C8 mRNA expression in human cryopreserved hepatocytes (quantitative PCR); details: 24 h, 1, 3 and 10 µM
Method: (§1) Plateable and interaction-qualified cryopreserved human hepatocytes (Lonza, Walkersville, MD, USA) were thawed in a hepatocyte thawing medium (Lonza) and then seeded at 5 × 10^4 cells per well in collagen-coated 96-well plates (Corning, Corning, NY, USA) with hepatocyte plating medium (Lonza). After 1 h of incubation with 5% CO2 under saturated humidity at 37 °C, the medium was replaced with fresh plating medium. After 4 h of seeding, the media were replaced with maintenance medium (Lonza) containing Matrigel (0.3 mg/ml).
(§2) After removing the medium containing Matrigel from the cells, the cells were treated with each test compound prepared in a maintenance medium (1, 3, and 10 µM). Rifampicin, a well-known CYP2C8 and CYP3A4 inducer, was used as a positive control and treated under the same conditions. […] To obtain the samples to evaluate mRNA levels, the cells were collected 24 h after drug treatment (n = 3 per test compound). […] The concentration of DMSO in the maintenance medium was 0.1%. A cell viability assay using CellTiter-Glo (Promega, Madison, WI, USA) was used to ensure the absence of cell toxicity during treatment with each compound.
RNA isolation and cDNA synthesis were carried out using the Superprep II Cell Lysis & RT Kit (Toyobo, Osaka, Japan) according to the manufacturer’s protocol. […] Data are expressed as fold-changes to the vehicle control.

CYP2C8 [2] = assay: Metabolic activity of paclitaxel in human cryopreserved hepatocytes: 6α-hydroxypaclitaxel production; details: 72 h treatment at 1–10 µM, then paclitaxel 10 µM 60 min
Method: as §1, §2

CYP2C8 [3] = biological target: T1, CYP2C8 (Homo sapiens, UniProt P10632); assay: Inhibition of paclitaxel metabolism in human liver microsome fraction: 6α-hydroxypaclitaxel production; details: human liver microsomes
T1 sequence (P10632 1-490): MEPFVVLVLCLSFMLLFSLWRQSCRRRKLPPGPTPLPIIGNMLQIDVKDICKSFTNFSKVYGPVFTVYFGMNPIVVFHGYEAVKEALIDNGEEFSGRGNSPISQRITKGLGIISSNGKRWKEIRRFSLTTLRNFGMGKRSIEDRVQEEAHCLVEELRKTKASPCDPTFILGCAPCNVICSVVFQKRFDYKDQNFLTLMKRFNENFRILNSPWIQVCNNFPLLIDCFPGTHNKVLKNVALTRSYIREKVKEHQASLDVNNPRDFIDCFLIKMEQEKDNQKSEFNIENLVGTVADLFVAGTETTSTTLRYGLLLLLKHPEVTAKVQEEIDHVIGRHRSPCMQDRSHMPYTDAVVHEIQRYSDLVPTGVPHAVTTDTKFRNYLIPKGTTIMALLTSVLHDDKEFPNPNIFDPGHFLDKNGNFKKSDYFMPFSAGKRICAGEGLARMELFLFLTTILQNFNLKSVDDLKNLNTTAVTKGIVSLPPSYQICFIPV
Method: (§3) Then, 10 µl of 10 mM β-NADPH (Oriental Yeast Co., Ltd., Tokyo, Japan) was added, mixed, and incubated at 37 °C for 140 min. The reaction was stopped by adding 100 µl of ethanol containing 40 µM BHB as an internal standard into the reactant and mixing vigorously. After centrifugation (15,000 × g, 7 min), 10 µl of the supernatant was analyzed using HPLC–MS/MS (Quattro Premier XE, Waters, Milford, MA, USA). The mass spectrometer used an electrospray ionization source in the positive ion mode with multiple reaction monitoring. The analytical column was an Inertsil ODS-4 (2.1 mm i.d. × 100 mm, 3 µm) (GL Sciences Inc., Tokyo, Japan). The mobile phase was delivered using a linear gradient elution system consisting of 0.5% formic acid (A): acetonitrile containing 0.5% formic acid (B), at a flow rate of 0.2 ml/min, with the following gradient profile: 40% B (0 min), increasing from 40 to 70% (0–6 min), and 70% B (6–8 min).

CYP3A4 = CYP3A4 (Homo sapiens, UniProt P08684); assay: Inhibition of paclitaxel metabolism in human liver microsome fraction: 3'-p-hydroxypaclitaxel production; details: human liver microsomes
CYP3A4, sequence (P08684 whole entry): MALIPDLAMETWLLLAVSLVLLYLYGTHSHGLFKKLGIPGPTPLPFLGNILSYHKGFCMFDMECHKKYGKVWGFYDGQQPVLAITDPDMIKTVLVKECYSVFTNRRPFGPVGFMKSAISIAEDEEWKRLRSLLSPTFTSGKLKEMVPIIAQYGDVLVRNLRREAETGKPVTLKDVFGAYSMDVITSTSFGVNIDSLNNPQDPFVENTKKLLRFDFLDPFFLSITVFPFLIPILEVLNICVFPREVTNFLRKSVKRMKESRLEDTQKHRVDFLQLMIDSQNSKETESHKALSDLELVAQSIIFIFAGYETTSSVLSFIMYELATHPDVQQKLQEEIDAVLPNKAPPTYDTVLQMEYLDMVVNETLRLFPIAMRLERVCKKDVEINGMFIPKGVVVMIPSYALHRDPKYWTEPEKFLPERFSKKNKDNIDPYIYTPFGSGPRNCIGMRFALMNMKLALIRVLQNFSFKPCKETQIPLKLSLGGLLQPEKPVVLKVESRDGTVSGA
Method: as §3

[4] = set-up: method as in PMID 30974202; details: rats, oral extract of processed Aconite root 1 g/kg as original crude drug; cited from earlier work
[5] = any concentration from 0.050 to 50 µM
[6] = human, pH 7.4, probe paclitaxel (6α-hydroxypaclitaxel formation)

effect on paclitaxel metabolism (3'-p-hydroxypaclitaxel production) (CYP3A4; [5]): did not affect
effect on paclitaxel metabolism (6α-hydroxypaclitaxel production) (CYP2C8 [3]; [5]): did not affect
Compound: C[C@@]12C[C@@]3(O)O[C@@H](O1)[C@]1(COC(=O)c4ccccc4)[C@H]3C[C@@]12O[C@@H]1O[C@H](CO)[C@@H](O)[C@H](O)[C@H]1O [paeoniflorin]

activity at 140 min, 0.3 µM (CYP2C8 [3]; [6]): 49%
activity at 140 min, 3 µM (CYP2C8 [3]; [6]): 29%
Compound: O=c1c(O)c(-c2ccc(O)c(O)c2)oc2cc(O)cc(O)c12 [quercetin]

Further lines, the compound ahead of its results:

Compound: CO[C@H]1/C=C/O[C@@]2(C)Oc3c(C)c(O)c4c(O)c(c(/C=N/N5CCN(C)CC5)c(O)c4c3C2=O)NC(=O)/C(C)=C\C=C\[C@H](C)[C@H](O)[C@@H](C)[C@@H](O)[C@@H](C)[C@H](OC(C)=O)[C@@H]1C [Rifampicin, rifampicin]
effect on CYP2C8 mRNA expression (CYP2C8 [1]): significantly induced
effect on production of 6α-hydroxypaclitaxel by human hepatocytes (CYP2C8 [2]): significantly induced

Compound: OC[C@H]1O[C@@H](O[C@@H]2OC=C[C@H]3[C@H](O)[C@@H]4O[C@]4(CO)[C@@H]23)[C@H](O)[C@@H](O)[C@@H]1O [catalpol]
effect on production of 6α-hydroxypaclitaxel (CYP2C8 [3]; at 50 µM): significantly induced

Compound: O=C(O)C1=CO[C@@H](O[C@@H]2O[C@H](CO)[C@@H](O)[C@H](O)[C@H]2O)[C@@H]2C(CO)=CC[C@H]12 [geniposidic acid]
effect on production of 3'-p-hydroxypaclitaxel (CYP3A4; at 50 µM): induced
effect on production of 6α-hydroxypaclitaxel (CYP2C8 [3]; at 50 µM): significantly induced

Compound: COC(=O)C1=CO[C@@H](O[C@@H]2O[C@H](CO)[C@@H](O)[C@H](O)[C@H]2O)[C@@H]2[C@@H](C)[C@@H](O)C[C@H]12 [loganin]
effect on production of 6α-hydroxypaclitaxel (CYP2C8 [3]; at 50 µM): significantly induced

Compound: neoline
induction ratio of 3'-p-hydroxypaclitaxel production (CYP3A4; at 5 µM): less than 10%
effect on production of 3'-p-hydroxypaclitaxel (CYP3A4; at 5.0 µM): significantly induced
effect on production of 3'-p-hydroxypaclitaxel (CYP3A4; at 50 µM): significantly inhibited
induction ratio of 6α-hydroxypaclitaxel production (CYP2C8 [3]; at 5 µM): less than 10%
effect on production of 6α-hydroxypaclitaxel (CYP2C8 [3]; at 5.0 µM): significantly induced
maximum blood concentration of neoline [4]: approximately 80 nM

Source: paper PMC8732799 (Journal of Natural Medicines, 2021)
